Assay [1] concerns the target T1, Cholecystokinin receptor type A (Homo sapiens, UniProt P32238).
T1 sequence (P32238 whole entry): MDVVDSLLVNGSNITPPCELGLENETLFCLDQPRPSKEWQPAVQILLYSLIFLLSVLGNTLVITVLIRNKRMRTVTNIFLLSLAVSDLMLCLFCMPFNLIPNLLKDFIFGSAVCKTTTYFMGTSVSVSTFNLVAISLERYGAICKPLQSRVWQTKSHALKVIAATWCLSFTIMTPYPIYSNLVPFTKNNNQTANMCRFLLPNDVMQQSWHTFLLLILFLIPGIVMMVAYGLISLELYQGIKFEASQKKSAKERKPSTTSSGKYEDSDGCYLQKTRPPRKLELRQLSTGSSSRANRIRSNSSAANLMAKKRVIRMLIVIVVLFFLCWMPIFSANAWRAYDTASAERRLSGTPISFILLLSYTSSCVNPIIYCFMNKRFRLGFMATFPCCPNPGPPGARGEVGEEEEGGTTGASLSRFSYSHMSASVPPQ

The target in assay [2] is Muscarinic acetylcholine receptor M3 (Homo sapiens, UniProt P20309).
Muscarinic acetylcholine receptor M3, sequence (P20309 whole entry): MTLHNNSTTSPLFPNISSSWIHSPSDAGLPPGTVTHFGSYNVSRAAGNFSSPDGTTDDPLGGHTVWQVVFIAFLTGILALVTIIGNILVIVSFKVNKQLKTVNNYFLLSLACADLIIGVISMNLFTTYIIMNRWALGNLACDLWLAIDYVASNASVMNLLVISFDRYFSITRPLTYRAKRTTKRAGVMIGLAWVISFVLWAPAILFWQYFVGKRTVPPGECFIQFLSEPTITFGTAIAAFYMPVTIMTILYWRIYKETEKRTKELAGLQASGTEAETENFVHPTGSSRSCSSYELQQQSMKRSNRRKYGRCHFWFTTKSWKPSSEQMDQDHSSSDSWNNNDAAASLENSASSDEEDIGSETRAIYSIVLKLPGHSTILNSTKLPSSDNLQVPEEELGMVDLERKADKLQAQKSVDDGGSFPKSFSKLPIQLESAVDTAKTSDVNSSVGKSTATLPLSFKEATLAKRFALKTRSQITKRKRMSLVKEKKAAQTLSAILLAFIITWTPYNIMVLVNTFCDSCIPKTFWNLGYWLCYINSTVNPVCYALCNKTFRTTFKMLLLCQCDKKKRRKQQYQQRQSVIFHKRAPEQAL
For a further assay, the target named is T2, Adenosine receptor A3 (Homo sapiens, UniProt P0DMS8).
T2 sequence (P0DMS8 whole entry): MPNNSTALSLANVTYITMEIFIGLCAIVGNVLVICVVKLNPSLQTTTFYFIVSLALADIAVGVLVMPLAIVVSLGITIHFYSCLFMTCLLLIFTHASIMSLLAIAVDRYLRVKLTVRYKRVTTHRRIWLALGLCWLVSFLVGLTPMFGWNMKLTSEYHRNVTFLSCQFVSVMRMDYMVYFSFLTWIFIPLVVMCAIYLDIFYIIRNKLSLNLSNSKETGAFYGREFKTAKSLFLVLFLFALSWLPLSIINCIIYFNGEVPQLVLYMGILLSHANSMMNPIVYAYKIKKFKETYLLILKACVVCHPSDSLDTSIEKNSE

The target of assay [3] is T3, Alpha-2C adrenergic receptor (Homo sapiens, UniProt P18825).
T3 sequence (P18825 whole entry): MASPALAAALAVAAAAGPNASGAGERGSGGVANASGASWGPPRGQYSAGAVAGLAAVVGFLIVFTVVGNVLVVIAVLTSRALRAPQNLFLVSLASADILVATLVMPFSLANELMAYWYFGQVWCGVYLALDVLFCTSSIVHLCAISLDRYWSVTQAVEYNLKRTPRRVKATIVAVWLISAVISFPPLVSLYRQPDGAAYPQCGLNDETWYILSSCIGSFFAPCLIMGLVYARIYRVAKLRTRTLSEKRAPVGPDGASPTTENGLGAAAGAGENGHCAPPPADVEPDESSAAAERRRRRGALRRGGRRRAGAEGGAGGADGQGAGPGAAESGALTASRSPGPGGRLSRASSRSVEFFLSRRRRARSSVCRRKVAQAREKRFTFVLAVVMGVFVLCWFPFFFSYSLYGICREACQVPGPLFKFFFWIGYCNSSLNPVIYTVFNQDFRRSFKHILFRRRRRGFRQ
It is filed as functional.

In assay [4] the target is T4, 5-hydroxytryptamine receptor 1A (Homo sapiens, UniProt P08908).
T4 sequence (P08908 whole entry): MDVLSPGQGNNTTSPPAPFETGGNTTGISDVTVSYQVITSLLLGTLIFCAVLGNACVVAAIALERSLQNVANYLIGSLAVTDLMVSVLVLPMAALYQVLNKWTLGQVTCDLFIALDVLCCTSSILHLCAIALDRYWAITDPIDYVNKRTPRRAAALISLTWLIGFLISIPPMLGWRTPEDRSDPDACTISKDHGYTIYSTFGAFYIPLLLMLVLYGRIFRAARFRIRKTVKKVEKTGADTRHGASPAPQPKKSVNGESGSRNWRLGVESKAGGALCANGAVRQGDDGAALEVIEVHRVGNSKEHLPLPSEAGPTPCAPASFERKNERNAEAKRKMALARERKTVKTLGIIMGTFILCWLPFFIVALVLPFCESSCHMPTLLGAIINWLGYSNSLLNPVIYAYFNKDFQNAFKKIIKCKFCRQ
It is filed as functional, cell-based.

For assay [5], the target named is 5-hydroxytryptamine receptor 2A (Homo sapiens, UniProt P28223). It is filed as functional, cell-based.
5-hydroxytryptamine receptor 2A, sequence (P28223 whole entry): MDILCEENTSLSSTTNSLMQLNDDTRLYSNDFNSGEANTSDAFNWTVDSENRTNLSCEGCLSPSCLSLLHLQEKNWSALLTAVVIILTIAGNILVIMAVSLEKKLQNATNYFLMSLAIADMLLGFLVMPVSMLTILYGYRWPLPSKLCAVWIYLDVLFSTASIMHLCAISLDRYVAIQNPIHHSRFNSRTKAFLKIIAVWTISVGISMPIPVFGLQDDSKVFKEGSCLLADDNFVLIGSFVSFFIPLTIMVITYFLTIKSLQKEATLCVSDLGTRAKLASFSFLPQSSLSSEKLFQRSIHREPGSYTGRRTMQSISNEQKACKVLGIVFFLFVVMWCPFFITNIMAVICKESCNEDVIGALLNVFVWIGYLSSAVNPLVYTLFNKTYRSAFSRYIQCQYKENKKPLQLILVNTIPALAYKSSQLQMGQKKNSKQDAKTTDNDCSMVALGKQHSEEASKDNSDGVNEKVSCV
The target in assay [6] is T5, Amine oxidase [flavin-containing] A (Homo sapiens, UniProt P21397).
T5 sequence (P21397 whole entry): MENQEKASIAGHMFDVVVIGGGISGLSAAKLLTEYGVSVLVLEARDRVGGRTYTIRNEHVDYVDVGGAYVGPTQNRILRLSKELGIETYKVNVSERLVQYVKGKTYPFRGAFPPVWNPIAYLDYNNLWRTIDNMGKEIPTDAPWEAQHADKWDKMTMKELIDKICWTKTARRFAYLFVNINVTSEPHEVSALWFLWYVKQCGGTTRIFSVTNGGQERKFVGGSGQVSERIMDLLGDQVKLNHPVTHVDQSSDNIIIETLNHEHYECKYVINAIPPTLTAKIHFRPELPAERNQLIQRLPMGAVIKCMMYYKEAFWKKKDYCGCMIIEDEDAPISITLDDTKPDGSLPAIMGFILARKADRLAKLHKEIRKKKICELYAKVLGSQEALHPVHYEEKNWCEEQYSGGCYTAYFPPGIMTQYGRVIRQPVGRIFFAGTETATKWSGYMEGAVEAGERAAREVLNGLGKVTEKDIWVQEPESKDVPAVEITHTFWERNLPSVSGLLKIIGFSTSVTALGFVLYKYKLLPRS
It is filed as functional.

The target in the next assay is Melanocortin receptor 3 (Homo sapiens, UniProt P41968).
Melanocortin receptor 3, sequence (P41968 whole entry): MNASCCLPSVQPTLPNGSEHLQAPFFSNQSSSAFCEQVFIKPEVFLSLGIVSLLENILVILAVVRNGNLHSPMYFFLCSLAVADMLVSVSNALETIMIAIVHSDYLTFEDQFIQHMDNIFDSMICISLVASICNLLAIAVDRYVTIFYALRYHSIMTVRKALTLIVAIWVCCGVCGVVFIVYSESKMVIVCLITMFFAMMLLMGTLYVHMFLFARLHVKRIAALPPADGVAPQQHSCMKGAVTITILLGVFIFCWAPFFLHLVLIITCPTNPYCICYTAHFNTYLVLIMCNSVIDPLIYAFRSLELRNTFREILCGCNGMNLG
For the next assay, the target named is Adenosine receptor A2a (Homo sapiens, UniProt P29274).
Adenosine receptor A2a, sequence (P29274 whole entry): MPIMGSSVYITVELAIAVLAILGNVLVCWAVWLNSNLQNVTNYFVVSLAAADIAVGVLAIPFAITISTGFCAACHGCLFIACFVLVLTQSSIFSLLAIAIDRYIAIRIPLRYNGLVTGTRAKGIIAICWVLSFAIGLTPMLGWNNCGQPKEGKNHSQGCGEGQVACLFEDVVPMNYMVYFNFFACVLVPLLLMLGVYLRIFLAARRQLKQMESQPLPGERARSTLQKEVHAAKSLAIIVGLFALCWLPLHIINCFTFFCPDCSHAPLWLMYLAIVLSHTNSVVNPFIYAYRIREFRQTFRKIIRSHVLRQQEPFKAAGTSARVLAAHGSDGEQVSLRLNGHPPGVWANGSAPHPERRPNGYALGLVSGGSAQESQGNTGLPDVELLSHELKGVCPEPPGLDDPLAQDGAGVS
The next assay has as its target Cannabinoid receptor 1 (Homo sapiens, UniProt P21554). The format is functional, cell-based.
Assay [7] addresses T6, Alpha-1A adrenergic receptor (Homo sapiens, UniProt P35348).
T6 sequence (P35348 whole entry): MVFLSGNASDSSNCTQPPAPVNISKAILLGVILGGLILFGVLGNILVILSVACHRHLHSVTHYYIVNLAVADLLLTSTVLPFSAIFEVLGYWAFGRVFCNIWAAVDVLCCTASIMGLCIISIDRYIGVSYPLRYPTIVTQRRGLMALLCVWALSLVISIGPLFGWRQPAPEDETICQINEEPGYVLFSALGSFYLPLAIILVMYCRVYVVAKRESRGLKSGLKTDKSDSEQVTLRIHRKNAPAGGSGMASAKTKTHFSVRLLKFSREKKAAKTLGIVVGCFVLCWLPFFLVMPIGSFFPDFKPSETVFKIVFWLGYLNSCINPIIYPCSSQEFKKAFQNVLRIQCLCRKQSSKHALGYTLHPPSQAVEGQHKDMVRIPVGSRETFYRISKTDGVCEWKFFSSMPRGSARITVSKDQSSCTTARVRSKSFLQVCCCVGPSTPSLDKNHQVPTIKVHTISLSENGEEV
Further: assay procedure not described here.

Cannabinoid receptor 1, sequence (P21554 whole entry): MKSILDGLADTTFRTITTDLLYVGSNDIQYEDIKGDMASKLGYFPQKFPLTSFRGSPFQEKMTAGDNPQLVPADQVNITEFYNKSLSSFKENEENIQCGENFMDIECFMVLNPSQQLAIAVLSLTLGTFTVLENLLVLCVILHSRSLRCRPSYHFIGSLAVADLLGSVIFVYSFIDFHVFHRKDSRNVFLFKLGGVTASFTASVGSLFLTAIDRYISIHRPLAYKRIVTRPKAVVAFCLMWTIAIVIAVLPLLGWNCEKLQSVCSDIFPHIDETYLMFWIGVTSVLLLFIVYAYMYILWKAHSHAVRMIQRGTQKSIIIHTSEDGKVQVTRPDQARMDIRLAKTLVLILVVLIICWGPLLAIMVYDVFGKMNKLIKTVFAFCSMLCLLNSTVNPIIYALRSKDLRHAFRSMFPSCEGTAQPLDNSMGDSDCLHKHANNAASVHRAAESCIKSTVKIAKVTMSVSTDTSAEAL

Take `Cc1ccc(-c2ncc(Cl)cc2-c2ccc(S(C)(=O)=O)cc2)cn1` [ETORICOXIB]: the AC50 was more than 10 µM in [1]; more than 10 µM in [2]; more than 10 µM on Adenosine receptor A3; more than 10 µM in [3]; more than 10 µM in assay [4]; more than 30 µM in assay [5]. Moreover, the AC50 is more than 10 µM in [6]; more than 10 µM on Melanocortin receptor 3; more than 10 µM on Adenosine receptor A2a; more than 30 µM at Cannabinoid receptor 1; more than 10 µM in [7].

Regarding `O=C(C[S+]([O-])Cc1ccco1)NC/C=C\COc1cc(CN2CCCCC2)ccn1` (stereo not given) [LAFUTIDINE], the AC50 in assay [1] was more than 10 µM; in assay [2], more than 30 µM; on Adenosine receptor A3 it was more than 10 µM; in [3], 2.6 µM; in [4], more than 30 µM; in assay [5], more than 30 µM. Further, the AC50 in assay [6] is more than 10 µM; on Melanocortin receptor 3, more than 10 µM; at Adenosine receptor A2a, more than 10 µM; on Cannabinoid receptor 1 it was more than 30 µM; in assay [7], more than 10 µM.

With `CC1NCCOC1c1ccccc1` (stereo not given) [PHENMETRAZINE], the AC50 in assay [1] was more than 30 µM; in [2] it was more than 30 µM; at Adenosine receptor A3, more than 30 µM; in assay [3], more than 10 µM; in assay [4], more than 10 µM; in [5], more than 30 µM. In addition, the AC50 in assay [6] was more than 10 µM; at Melanocortin receptor 3 it was more than 30 µM; at Adenosine receptor A2a it was more than 30 µM; on Cannabinoid receptor 1 it was more than 30 µM; in assay [7], more than 10 µM.

As to `CC(C)(N)Cc1ccccc1` [PHENTERMINE], the AC50 was more than 30 µM in [1]; more than 30 µM in assay [2]; more than 30 µM on Adenosine receptor A3; more than 10 µM in assay [3]; more than 10 µM in [4]; more than 30 µM in assay [5]. Further, the AC50 in [6] was more than 10 µM; at Melanocortin receptor 3, more than 30 µM; on Adenosine receptor A2a it was more than 30 µM; at Cannabinoid receptor 1, more than 30 µM; in assay [7] it was more than 10 µM.

Take `CC(C(=O)O)c1ccc(C(=O)c2ccccc2)s1` (stereo not given) [TIAPROFENIC ACID]: the AC50 in assay [1] is more than 10 µM; in assay [2], more than 30 µM; on Adenosine receptor A3, more than 10 µM; in [3] it was 15 µM; in assay [4], more than 10 µM; in assay [5] it was more than 30 µM. Besides, the AC50 in assay [6] was 18 µM; at Melanocortin receptor 3, more than 10 µM; at Adenosine receptor A2a, more than 10 µM; on Cannabinoid receptor 1, more than 30 µM; in assay [7], 10 µM.
